In the supplement of paper PMC10307832:

What was measured:
Assay in all cases: relative viability (nuclei count vs DMSO), 5 days (fraction); higher = more cells survive
NCI-H2126 = system: NCI-H2126
Summary of the method: (§1)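 Cells from lung cancer lines were seeded into 1536-well plates and, one day later, dosed by pin tool. Treatments were either a single drug or a fixed dose of an anchor drug with five library-drug doses (not always all listed) in √10 steps. After 5 days, nuclei were stained in a one-step fixation (final 0.05% Triton X-100, 1% formaldehyde, 1 ug/ml Hoechst) and counted on 4× images, and relative viability is the treated-to-vehicle nuclei ratio, as the median of duplicate plates.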

RERF-LC-KJ = system: RERF-LC-KJ
Summary of the method: as §1

SW 900 = system: SW 900
Summary of the method: as §1

NCI-H2405 = system: NCI-H2405
Summary of the method: as §1

LK-2 = system: LK-2
Summary of the method: as §1

SW 1573 = system: SW 1573
Summary of the method: as §1

HCC-78 = system: HCC-78
Summary of the method: as §1

NCI-H23 = system: NCI-H23
Summary of the method: as §1

LOU-NH91 = system: LOU-NH91
Summary of the method: as §1

LU99A = system: LU99A
Summary of the method: as §1

EPLC-272H = system: EPLC-272H
Summary of the method: as §1

LCLC-103H = system: LCLC-103H
Summary of the method: as §1

NCI-H1666 = system: NCI-H1666
Summary of the method: as §1

SK-LU-1 = system: SK-LU-1
Summary of the method: as §1

NCI-H2085 = system: NCI-H2085
Summary of the method: as §1

NCI-H3122 = system: NCI-H3122
Summary of the method: as §1

HCC-366 = system: HCC-366
Summary of the method: as §1

EMC-BAC-2 = system: EMC-BAC-2
Summary of the method: as §1

LXF-289 = system: LXF-289
Summary of the method: as §1

HCC-44 = system: HCC-44
Summary of the method: as §1

HCC-827 = system: HCC-827
Summary of the method: as §1

NCI-H1975 = system: NCI-H1975
Summary of the method: as §1

ChaGo-K-1 = system: ChaGo-K-1
Summary of the method: as §1

With `COc1cc(N2CCC(C(N)=O)CC2)ccc1Nc1nc(N)c(Cl)c(Nc2ccccc2S(=O)(=O)C(C)C)n1` [HG-5-88-01] + O=C(CCCCCCC(=O)Nc1ccccc1)NO [Vorinostat] (partner 1 µM) the relative viability (NCI-H2126; first compound 0.04 µM) was 0.653, the relative viability (NCI-H2126; first compound 0.1265 µM) was 0.813 and the relative viability (NCI-H2126; first compound 0.4 µM) was 0.713. The relative viability (NCI-H2126; first compound 1.265 µM) was 0.594, the relative viability (NCI-H2126; first compound 4 µM) was 0.456 and the relative viability (RERF-LC-KJ; first compound 0.04 µM) was 0.73. For the same compound, the relative viability (RERF-LC-KJ; first compound 0.1265 µM) was 0.703, the relative viability (RERF-LC-KJ; first compound 0.4 µM) was 0.624 and the relative viability (RERF-LC-KJ; first compound 1.265 µM) was 0.691. The relative viability (RERF-LC-KJ; first compound 4 µM) was 0.405, the relative viability (SW 900; first compound 0.04 µM) was 0.583 and the relative viability (SW 900; first compound 0.1265 µM) was 0.334. The relative viability (SW 900; first compound 0.4 µM) was 0.525, the relative viability (SW 900; first compound 1.265 µM) was 0.447 and the relative viability (SW 900; first compound 4 µM) was 0.354. The relative viability (NCI-H2405; first compound 0.04 µM) was 1.07, the relative viability (NCI-H2405; first compound 0.1265 µM) was 1.06 and the relative viability (NCI-H2405; first compound 0.4 µM) was 0.895. For the same compound, the relative viability (NCI-H2405; first compound 1.265 µM) was 1.03, the relative viability (NCI-H2405; first compound 4 µM) was 1.02 and the relative viability (LK-2; first compound 0.04 µM) was 0.326. It also gave a relative viability (LK-2; first compound 0.1265 µM) of 0.411, a relative viability (LK-2; first compound 0.4 µM) of 0.466 and a relative viability (LK-2; first compound 4 µM) of 0.306. It also gave a relative viability (SW 1573; first compound 0.04 µM) of 0.657, a relative viability (SW 1573; first compound 0.1265 µM) of 0.896 and a relative viability (SW 1573; first compound 0.4 µM) of 0.816. It also gave a relative viability (SW 1573; first compound 1.265 µM) of 0.755, a relative viability (SW 1573; first compound 4 µM) of 0.851 and a relative viability (HCC-78; first compound 0.04 µM) of 0.467. The relative viability (HCC-78; first compound 0.1265 µM) was 0.357, the relative viability (HCC-78; first compound 0.4 µM) was 0.356 and the relative viability (HCC-78; first compound 1.265 µM) was 0.206. It also gave a relative viability (HCC-78; first compound 4 µM) of 0.217, a relative viability (NCI-H23; first compound 0.04 µM) of 0.793 and a relative viability (NCI-H23; first compound 0.1265 µM) of 0.752. It also gave a relative viability (NCI-H23; first compound 0.4 µM) of 0.609, a relative viability (NCI-H23; first compound 1.265 µM) of 0.538 and a relative viability (NCI-H23; first compound 4 µM) of 0.307. It also gave a relative viability (LOU-NH91; first compound 0.04 µM) of 0.869, a relative viability (LOU-NH91; first compound 0.1265 µM) of 0.823 and a relative viability (LOU-NH91; first compound 0.4 µM) of 0.723. For the same compound, the relative viability (LOU-NH91; first compound 1.265 µM) was 0.508, the relative viability (LOU-NH91; first compound 4 µM) was 0.469 and the relative viability (LU99A; first compound 0.04 µM) was 0.442. It also gave a relative viability (LU99A; first compound 0.1265 µM) of 0.454, a relative viability (LU99A; first compound 0.4 µM) of 0.522 and a relative viability (LU99A; first compound 1.265 µM) of 0.55. For the same compound, the relative viability (LU99A; first compound 4 µM) was 0.436, the relative viability (EPLC-272H; first compound 0.04 µM) was 0.497 and the relative viability (EPLC-272H; first compound 0.1265 µM) was 0.606. For the same compound, the relative viability (EPLC-272H; first compound 0.4 µM) was 0.6, the relative viability (EPLC-272H; first compound 1.265 µM) was 0.503 and the relative viability (EPLC-272H; first compound 4 µM) was 0.116. For the same compound, the relative viability (LCLC-103H; first compound 0.04 µM) was 0.826, the relative viability (LCLC-103H; first compound 0.1265 µM) was 0.767 and the relative viability (LCLC-103H; first compound 0.4 µM) was 0.65. The relative viability (LCLC-103H; first compound 1.265 µM) was 0.757, the relative viability (LCLC-103H; first compound 4 µM) was 0.605 and the relative viability (NCI-H1666; first compound 0.04 µM) was 0.984. It also gave a relative viability (NCI-H1666; first compound 0.1265 µM) of 1, a relative viability (NCI-H1666; first compound 0.4 µM) of 0.975 and a relative viability (NCI-H1666; first compound 1.265 µM) of 0.92. For the same compound, the relative viability (NCI-H1666; first compound 4 µM) was 0.828, the relative viability (SK-LU-1; first compound 0.04 µM) was 0.783 and the relative viability (SK-LU-1; first compound 0.1265 µM) was 0.82. For the same compound, the relative viability (SK-LU-1; first compound 0.4 µM) was 0.789, the relative viability (SK-LU-1; first compound 1.265 µM) was 0.773 and the relative viability (SK-LU-1; first compound 4 µM) was 0.547. It also gave a relative viability (NCI-H2085; first compound 0.04 µM) of 0.825, a relative viability (NCI-H2085; first compound 0.1265 µM) of 0.846 and a relative viability (NCI-H2085; first compound 0.4 µM) of 0.729. The relative viability (NCI-H2085; first compound 1.265 µM) was 0.791, the relative viability (NCI-H2085; first compound 4 µM) was 0.758 and the relative viability (NCI-H3122; first compound 0.04 µM) was 0.731. The relative viability (NCI-H3122; first compound 0.1265 µM) was 0.438, the relative viability (NCI-H3122; first compound 0.4 µM) was 0.195 and the relative viability (NCI-H3122; first compound 1.265 µM) was 0.218. The relative viability (NCI-H3122; first compound 4 µM) was 0.158, the relative viability (HCC-366; first compound 0.04 µM) was 0.438 and the relative viability (HCC-366; first compound 0.1265 µM) was 0.452. For the same compound, the relative viability (HCC-366; first compound 0.4 µM) was 0.339, the relative viability (HCC-366; first compound 1.265 µM) was 0.336 and the relative viability (HCC-366; first compound 4 µM) was 0.283. The relative viability (EMC-BAC-2; first compound 0.04 µM) was 0.503, the relative viability (EMC-BAC-2; first compound 0.1265 µM) was 0.442 and the relative viability (EMC-BAC-2; first compound 0.4 µM) was 0.354. It also gave a relative viability (EMC-BAC-2; first compound 1.265 µM) of 0.518, a relative viability (EMC-BAC-2; first compound 4 µM) of 0.448 and a relative viability (LXF-289; first compound 0.04 µM) of 0.93. It also gave a relative viability (LXF-289; first compound 0.1265 µM) of 0.754, a relative viability (LXF-289; first compound 0.4 µM) of 0.826 and a relative viability (LXF-289; first compound 1.265 µM) of 0.847. The relative viability (LXF-289; first compound 4 µM) was 0.822, the relative viability (HCC-44; first compound 0.04 µM) was 1.07 and the relative viability (HCC-44; first compound 0.1265 µM) was 1.14. For the same compound, the relative viability (HCC-44; first compound 0.4 µM) was 1.05, the relative viability (HCC-44; first compound 1.265 µM) was 1.08 and the relative viability (HCC-44; first compound 4 µM) was 1.14. For the same compound, the relative viability (HCC-827; first compound 0.04 µM) was 0.829, the relative viability (HCC-827; first compound 0.1265 µM) was 0.807 and the relative viability (HCC-827; first compound 0.4 µM) was 0.87. It also gave a relative viability (HCC-827; first compound 1.265 µM) of 0.335, a relative viability (HCC-827; first compound 4 µM) of 0.235 and a relative viability (NCI-H1975; first compound 0.04 µM) of 0.734. It also gave a relative viability (NCI-H1975; first compound 0.1265 µM) of 0.711, a relative viability (NCI-H1975; first compound 0.4 µM) of 0.689 and a relative viability (NCI-H1975; first compound 1.265 µM) of 0.612. It also gave a relative viability (NCI-H1975; first compound 4 µM) of 0.35, a relative viability (ChaGo-K-1; first compound 0.04 µM) of 0.75 and a relative viability (ChaGo-K-1; first compound 0.1265 µM) of 0.71. It also gave a relative viability (ChaGo-K-1; first compound 0.4 µM) of 0.737, a relative viability (ChaGo-K-1; first compound 1.265 µM) of 0.786 and a relative viability (ChaGo-K-1; first compound 4 µM) of 0.589.
